The values that follow come from ChEMBL document CHEMBL1201862, “PubChem BioAssay data set” (2004).

SMILES strings stand for the structures.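 96-well plates; 48 h exposure; 5 concentrations. Endpoints by linear interpolation between flanking doses. Not reached: highest tested concentration assigned. GI50 is the concentration that inhibits growth by half.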 Calls of active or inactive are those of the source. Rule as the data show it: active = GI50 up to about 1.1 µM and inactive = higher.

Among the test systems are IGROV-1; OVCAR-3; U-251; A549; SN12C; HOP-62; OVCAR-4; SK-MEL-28; UACC-257; MDA-MB-231; Malme-3M; UACC-62; SF-295; OVCAR-5; SNB-19; HCT-15; 786-0; HL-60; SR; HT-29.
Common to all, as to assay: NCI tumour cell line growth inhibition, 48 h

As to `Cc1cn(C2CC(O)C(Cn3nncc3Cn3ncc(=O)[nH]c3=O)O2)c(=O)[nH]c1=O` (stereo not given), the GI50 in the test on IGROV-1, with OVCAR-3, in the test on U-251, with A549, in the test on SN12C and in the test with HOP-62 was > 100 µM (inactive) in each case. In addition, the GI50 in the test with OVCAR-4, in the test with SK-MEL-28, in the test on UACC-257, with MDA-MB-231, with Malme-3M and in the test on UACC-62 was > 100 µM (inactive) each time. Besides, the GI50 is > 100 µM (inactive) in the test with SF-295, > 100 µM (inactive) in the test on OVCAR-5, > 100 µM (inactive) in the test with SNB-19 and above 100 µM in the test with HCT-15.
Turning to `Cc1[nH]c2ccccc2c1C1Cc2ccccc2N1C(=O)/C(Cl)=C/c1ccccc1` (stereo not given), the GI50 with IGROV-1 is 61.1 µM (inactive); in the test on 786-0 it was > 100 µM (inactive); in the test on OVCAR-3 it was > 100 µM (inactive); in the test with HL-60 it was 98.2 µM (inactive); with U-251, > 100 µM (inactive); in the test on SR, 29.2 µM (inactive). Besides, the GI50 in the test on A549 is 88.1 µM (inactive); in the test on SN12C it was > 100 µM (inactive); in the test on HOP-62, > 100 µM (inactive); with HT-29, > 100 µM (inactive); in the test with OVCAR-4, > 88.1 µM (inactive); in the test on SK-MEL-28 it was > 100 µM (inactive). Also, the GI50 in the test with UACC-257 is > 100 µM (inactive); in the test on Malme-3M, > 86.3 µM (inactive); in the test on UACC-62, > 100 µM (inactive); in the test with SF-295, > 31 µM (inactive); with OVCAR-5, > 100 µM (inactive); in the test on SNB-19, > 100 µM (inactive). In the test with HCT-15, this molecule came in with a GI50 above 100 µM.
Regarding `C#CCOC(=O)C(N)C(C)O` (stereo not given), the GI50 in the test on IGROV-1, with 786-0, in the test with OVCAR-3, in the test with HL-60, with U-251 and in the test with A549 was > 100 µM (inactive) throughout. In addition, the GI50 in the test with SN12C, in the test on HOP-62, in the test on HT-29, with SK-MEL-28, in the test with UACC-257 and in the test with MDA-MB-231 was > 100 µM (inactive) in each case. Moreover, the GI50 in the test with Malme-3M, with UACC-62, in the test with SF-295 and in the test with OVCAR-5 was > 100 µM (inactive) in each case.
Consider `Cc1cc(N(CCC#N)S(=O)(=O)c2ccccc2)ccc1C=O`, for which the GI50 with IGROV-1, with 786-0, in the test on OVCAR-3, with HL-60, with U-251 and in the test on SR was > 100 µM (inactive) each time. Besides, the GI50 in the test on A549, in the test on SN12C, in the test on HOP-62, in the test with HT-29, in the test on OVCAR-4 and in the test with SK-MEL-28 was > 100 µM (inactive) in each case. The GI50 in the test on UACC-257, with Malme-3M, in the test on UACC-62, in the test on SF-295, in the test with OVCAR-5 and with SNB-19 was > 100 µM (inactive) in each case. This molecule also showed a GI50 with HCT-15 above 100 µM.
With `O=C(c1cccs1)N(C(=O)N1CCCCC1)c1ccccc1`, the GI50 with IGROV-1, with 786-0, with OVCAR-3, in the test with HL-60, in the test with U-251 and in the test with SN12C was > 100 µM (inactive) in each case. The GI50 was > 100 µM (inactive) in the test on HT-29; > 100 µM (inactive) with SK-MEL-28; > 100 µM (inactive) with UACC-257; > 100 µM (inactive) in the test with MDA-MB-231; 2.25 µM (inactive) with Malme-3M; > 100 µM (inactive) with UACC-62. Further, the GI50 with SF-295 was > 100 µM (inactive); in the test on SNB-19 it was > 100 µM (inactive); in the test on HCT-15, above 100 µM.
